Data: US20240101566A1, “TRICYCLIC UBIQUITIN SPECIFIC PROTEASE 1 INHIBITOR AND USE THEREOF” (SHANDONG XUANZHU PHARMA CO., LTD., priority 2021, published 2024)

Tests used:
MDA-MB-436 cells [1] = test: First in-vitro cytological inhibitory activity experiment (CelltiterGlo assay); assay type: cell-based, human; conditions: Experimental Example 2, 4,000 cells/well, 7 days, read-out: In-vitro cytological activities, IC50, MDA-MB-436
Procedure: Experimental Example 2 First Experiment of in-vitro Cytological Inhibitory Activities of Compounds of the Present Disclosure
A cell line used in the following experiment was as follows: MDA-MB-436: human breast cancer cells.
Experimental method (CelltiterGlo assay)
All cells were adherent cells, the medium was DMEM+10% FBS+1% ITS-G+16 μg/ml glutathione, and the cells were tested in a logarithmic growth phase.
Cells in the logarithmic growth phase were collected and counted by a […]. The cell viability was detected by a trypan blue exclusion method, and the cell viability was kept over 90%. The cell concentration was adjusted to be in a proper range, and 90 μL of cell suspension was added into a 96-well plate respectively.
2.1 DMSO stock solutions of the test compounds were prepared, and concentrations of the stock solutions of the test compounds were 10 mM respectively.
The stock solutions of the test compounds were serially diluted from 10 mM with DMSO in a 3-fold gradient for a total of 8 concentrations. Then, 2 µL of DMSO-gradient diluted compounds were respectively added into 198 µL of culture solutions to give the working stock solutions of the test compounds (a compound concentration was 10-fold higher than the final concentration, and a maximum concentration was […]).
10 μL of compound working stock solution was added into each well in the 96-well plate inoculated with cells (10-fold dilution, a final DMSO concentration was 0.1%).
Solvent control: 0.1% DMSO. […]
A CTG reagent was thawed and the 96-well plate was equilibrated to room temperature for 30 minutes, 60 μL of reagent (Celititer Glo assay kit) was added into each well, shaking was carried out for 2 minutes with a shaker (in the absence of light), and the plate was incubated at room temperature for 20 minutes (in the absence of light). Light signal values were read on a multi-functional microplate reader.
1) inhibition (%)=(DMSO solvent control well reading−test compound well reading)/(DMSO solvent control well reading−blank control well reading)×100%; […]

[2] = molecular target: Recombinant Human His6-USP1/His6-UAF1 Complex Protein (Homo sapiens (Human), UniProt O94782); test: In-vitro enzymatic activity on USP1, first experimental method (Ub-Rho substrate, 15 min incubation); assay type: biochemical; conditions: incubation at room temperature 15 minutes, read-out: Inhibitory activities on USP-1, IC50
Sequence of Recombinant Human His6-USP1/His6-UAF1 Complex Protein (O94782 whole entry): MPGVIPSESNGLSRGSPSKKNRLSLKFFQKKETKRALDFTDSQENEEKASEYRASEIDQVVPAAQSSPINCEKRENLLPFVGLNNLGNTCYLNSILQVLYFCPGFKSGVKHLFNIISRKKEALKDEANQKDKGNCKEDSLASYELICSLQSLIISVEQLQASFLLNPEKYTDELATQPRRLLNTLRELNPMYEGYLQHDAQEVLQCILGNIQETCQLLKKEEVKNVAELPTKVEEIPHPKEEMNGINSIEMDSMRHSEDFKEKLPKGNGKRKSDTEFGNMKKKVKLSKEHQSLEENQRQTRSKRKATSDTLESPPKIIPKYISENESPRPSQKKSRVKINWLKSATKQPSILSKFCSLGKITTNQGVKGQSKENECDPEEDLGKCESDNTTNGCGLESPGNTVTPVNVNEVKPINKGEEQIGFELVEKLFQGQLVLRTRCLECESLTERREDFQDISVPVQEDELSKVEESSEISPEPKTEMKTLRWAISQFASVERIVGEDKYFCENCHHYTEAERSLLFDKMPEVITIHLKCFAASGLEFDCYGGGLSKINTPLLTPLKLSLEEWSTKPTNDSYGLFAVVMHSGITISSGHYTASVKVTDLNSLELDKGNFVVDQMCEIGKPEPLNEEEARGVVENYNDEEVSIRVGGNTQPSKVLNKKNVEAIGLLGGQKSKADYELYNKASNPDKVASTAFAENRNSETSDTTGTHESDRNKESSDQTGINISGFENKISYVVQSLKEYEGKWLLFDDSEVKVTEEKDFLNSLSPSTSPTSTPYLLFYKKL
Sequence of Recombinant Human His6-USP1/His6-UAF1 Complex Protein (Q8TAF3 whole entry partner): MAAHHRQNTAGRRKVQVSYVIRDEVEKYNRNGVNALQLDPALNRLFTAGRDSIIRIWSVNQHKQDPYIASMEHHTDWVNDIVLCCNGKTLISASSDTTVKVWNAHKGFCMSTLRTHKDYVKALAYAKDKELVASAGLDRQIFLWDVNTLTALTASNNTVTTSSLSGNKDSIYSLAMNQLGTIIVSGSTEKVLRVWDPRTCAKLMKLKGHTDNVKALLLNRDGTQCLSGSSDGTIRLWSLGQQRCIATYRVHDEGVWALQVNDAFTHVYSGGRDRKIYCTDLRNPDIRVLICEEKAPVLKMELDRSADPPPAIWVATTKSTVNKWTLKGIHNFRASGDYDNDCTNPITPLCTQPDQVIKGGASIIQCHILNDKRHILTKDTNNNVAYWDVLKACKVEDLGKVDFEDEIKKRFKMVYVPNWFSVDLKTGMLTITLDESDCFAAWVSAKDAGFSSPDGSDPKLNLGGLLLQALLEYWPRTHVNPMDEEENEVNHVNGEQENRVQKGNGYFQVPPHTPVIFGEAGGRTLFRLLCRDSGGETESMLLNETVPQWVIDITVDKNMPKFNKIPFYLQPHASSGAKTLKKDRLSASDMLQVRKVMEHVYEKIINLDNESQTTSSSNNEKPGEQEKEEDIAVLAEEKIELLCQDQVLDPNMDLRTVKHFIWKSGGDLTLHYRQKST
Procedure: Experimental Example 1 In-vitro Enzymatic Activities of Compounds of the Present Disclosure
First Experimental Method:
1) The compounds of the present disclosure were prepared to 10 mM with DMSO, and used as test stock solutions.
2) The stock solutions of the compounds of the present disclosure were diluted in a 4-fold gradient for 10 concentrations, with a maximum concentration of 10 mM.
3) The diluted compounds of the present disclosure were respectively transferred to 384-well plates (diluted by 1,000 folds) by Echo550, 2 multiple wells were set for each concentration, and a final concentration of DMSO was […].
1) An enzyme solution was prepared in 1×test buffer.
2) Ubiquitin Rhodamine 110 protein, CF (UB-Rho), was added into 1×determination buffer to prepare a substrate solution.
3) 10 μL of enzyme solution and 1×reaction buffer were transferred to a 384-well plate, and
4) incubated at room temperature for 15 minutes.
5) 10 μL of substrate solution was added into each well to start the reaction, centrifuged for 30 seconds, and shaken for 30 seconds.
1) Plate reading was carried out on SpectraMax Paradigm for 30 minutes, with an excitation wavelength of 480 nm and an emission wavelength of 540 nm.
2) Data on SpectraMax Paradigm were collected.
An inhibition (% inh) was calculated by the following formula:
[formula] • wherein, Max represented: a luminous signal intensity of a positive control well without adding the compound; • Min represented: a luminous signal intensity of a negative control well without adding the enzyme; and • Signal represented: a luminous signal intensity of the compound of the test sample.
IC50 was Calculated by the Following Formula:
[formula] • wherein, Y represented: % inhibition; and • X represented: the concentration of the compound.

[3] = parameters: species or system mice; conditions: mouse, in vivo, iv, 5 mg/kg
Procedure: Experiment Example 4 Pharmacokinetic Experiment of Compounds of the Present Disclosure 1. Test compounds: the compounds in the examples of the present disclosure, prepared according to the examples in the specification of the present disclosure. [table] (1) Intravenous administration (iv): 2.54 mg of compound 11 was taken, added with 0.495 ml of DMSO solution to be dissolved by vortex and ultrasound, added with 0.495 ml of PEG400 to be mixed by vortex, and then added with 1.484 ml of 28% HP-β-CD to be mixed by vortex to obtain a clear solution, with a concentration of 1 mg/ml. (2) Oral administration (po): 3.33 mg of compound 11 was taken, added with 3.243 ml of solvent (2% HPC+0.1% Tween 80), and ground evenly to obtain a uniform suspension, with a concentration of 1 mg/ml. The test compounds were administered intravenously (iv), with an administration dosage of 5 mg/kg and an administration volume of 5 ml/kg. The test compounds were administered orally (po), with an administration dosage of 10 mg/kg and an administration volume of 10 ml/kg. […] LC-MS/MS was to be analyzed.

MDA-MB-436 cells [4] = test: Second in-vitro cytological inhibitory activity experiment, second method, MDA-MB-436; assay type: cell-based; conditions: Homo sapiens, Experimental Example 3 second method, 5 mM stock, 9 concentrations
Procedure: (§1) Second Experimental Method:
(§2) The concentrations of the compound stock solutions prepared were 5 mM.
(§3) The stock solutions of the test compounds were serially diluted from 5 mM with DMSO in a 3-fold gradient for a total of 9 concentrations.

Caov-3 cells = test: Second in-vitro cytological inhibitory activity experiment, second method, Caov-3; assay type: cell-based; conditions: Homo sapiens, Experimental Example 3 second method, 5 mM stock, 9 concentrations
Procedure: as §1, §2, §3

[5] = Homo sapiens, MDA-MB-436, 168 h

| SMILES | IC50 (MDA-MB-436 cells [1]; [5]) [nM] | IC50 [2] [nM] | other results |
| --- | --- | --- | --- |
| COc1ncnc(C2CC2)c1-c1nc2c3c(nn(Cc4ccc(-c5nc(C(F)(F)F)cn5C)cc4)c3n1)CCCC2 [Compound 11, 4-(4-cyclopropyl-6-methoxypyrimidine-5-yl)-2-(4-(1-methyl-4-(trifluoromethyl)-1H-imidazol-2-yl)benzyl)-6,7,8,9-tetrahydro-2H-1,2,3,5-tetraazabenzo[cd]pyrene] |  | 22 | exposure [3]: more than 6,000 h*ng/ml; IC50 (MDA-MB-436 cells [1]): 101 nM |
| Cn1cc(C(F)(F)F)nc1-c1ccc(Cn2nc3c4c(nc(-c5c(OC(F)F)ncnc5C5CC5)nc42)CCC3)cc1 [Compound 20, 4-(4-cyclopropyl-6-(difluoromethoxy)pyrimidin-5-yl)-2-(4-(1-methyl-4-(trifluoromethyl)-1H-imidazol-2-yl)benzyl)-2,6,7,8-tetrahydropyrazolo[3,4,5-de]quinazoline] |  |  | IC50 (MDA-MB-436 cells [4]): 55.7 nM; IC50 (Caov-3 cells): 1 to 100 nM |
| Cc1cc(C(F)(F)F)nn1-c1ccc(Cn2nc3c4c(nc(-c5cccc(F)c5C(C)C)nc42)CCC3)cc1 [Compound 3, 4-(3-fluoro-2-isopropylphenyl)-2-(4-(5-methyl-3-(trifluoromethyl)-1H-pyrazol-1-yl)benzyl)-2,6,7,8-tetrahydropyrazolo[3,4,5-de]quinazoline] |  | 18 |  |

More lines, main results first:

| IC50 (MDA-MB-436 cells [1]; [5]) [nM] | IC50 [2] [nM] | SMILES | other results |
| --- | --- | --- | --- |
| 68 | 28 | COc1ncnc(C2CC2)c1-c1nc2c3c(nn(Cc4ccc(-c5nc(C(F)(F)F)cn5C)cc4)c3n1)CCC2 [Compound 1, 4-(4-cyclopropyl-6-methoxypyrimidine-5-yl)-2-(4-(1-methyl-4-(trifluoromethyl)-1H-imidazol-2-yl)benzyl)-2,6,7,8-tetrahydropyrazolo[3,4,5-de]quinazoline] |  |
| 88.1 | 5 | CC(C)c1c(F)cccc1-c1nc2c3c(nn(Cc4ccc(-c5nc(C(F)(F)F)cn5C)cc4)c3n1)CCC2 [Compound 2, 4-(3-fluoro-2-isopropylphenyl)-2-(4-(1-methyl-4-(trifluoromethyl)-1H-imidazol-2-yl)benzyl)-2,6,7,8-tetrahydropyrazolo[3,4,5-de]quinazoline] |  |
